Experimental data: PubChem BioAssay AID248 (DTP/NCI, 2004)
Values joined by “and” are separate entries in the source; they are usually repeats but may differ in a detail not shown here. Equal values may be shown once. Inconclusive results and toxic doses are left out. No stated cut-off is given here; in the data, active means T/C of 150% or more; inactive means T/C below 125%.

Tested on: L1210 leukemia ip in BDF1 mice, survival T/C
Assay: NCI In Vivo Anticancer Drug Screen. Data for tumor model L1210 Leukemia (intraperitoneal) in B6D2F1 (BDF1) mice
Conditions: endpoint: mean survival time, higher = longer survival
How it was run: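 Mice bearing the transplanted tumor received compound or vehicle. Survival of the treated group was divided by that of the vehicle-treated control group to give the ratio.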

[1] = dose: 100.0 mg/kg/injection, schedule: Q04DX003 (ip), vehicle: saline
[2] = dose: 200.0 mg/kg/injection, schedule: Q04DX003 (ip), vehicle: saline
[3] = dose: 400.0 mg/kg/injection, schedule: Q04DX003 (ip), vehicle: saline
[4] = dose: 100.0 mg/kg/injection, schedule: Q04DX002 (ip), vehicle: saline
[5] = dose: 200.0 mg/kg/injection, schedule: Q04DX002 (ip), vehicle: saline
[6] = dose: 400.0 mg/kg/injection, schedule: Q04DX002 (ip), vehicle: saline
[7] = dose: 100.0 mg/kg/injection, schedule: Q04DX003 (ip), vehicle: saline with Tween-80
[8] = dose: 200.0 mg/kg/injection, schedule: Q04DX003 (ip), vehicle: saline with Tween-80
[9] = dose: 400.0 mg/kg/injection, schedule: Q04DX003 (ip), vehicle: saline with Tween-80
[10] = dose: 100.0 mg/kg/injection, schedule: Q01DX009 (ip), vehicle: Klucel (hydroxypropylcellulose) (HPC)
[11] = dose: 100.0 mg/kg/injection, schedule: Q04DX003 (ip), vehicle: Klucel (hydroxypropylcellulose) (HPC)
[12] = dose: 200.0 mg/kg/injection, schedule: Q01DX009 (ip), vehicle: Klucel (hydroxypropylcellulose) (HPC)
[13] = dose: 200.0 mg/kg/injection, schedule: Q04DX003 (ip), vehicle: Klucel (hydroxypropylcellulose) (HPC)
[14] = dose: 400.0 mg/kg/injection, schedule: Q01DX009 (ip), vehicle: Klucel (hydroxypropylcellulose) (HPC)
[15] = dose: 100.0 mg/kg/injection, schedule: Q01DX001 (ip), vehicle: saline
[16] = dose: 200.0 mg/kg/injection, schedule: Q01DX001 (ip), vehicle: saline
[17] = dose: 100.0 mg/kg/injection, schedule: Q01DX001 (ip), vehicle: carboxymethylcellulose (CMC)
[18] = dose: 200.0 mg/kg/injection, schedule: Q01DX001 (ip), vehicle: carboxymethylcellulose (CMC)
[19] = dose: 400.0 mg/kg/injection, schedule: Q01DX001 (ip), vehicle: carboxymethylcellulose (CMC)
[20] = dose: 100.0 mg/kg/injection, schedule: Q01DX001 (ip), vehicle: other
[21] = dose: 100.0 mg/kg/injection, schedule: Q01DX009 (ip), vehicle: saline with Tween-80
[22] = dose: 200.0 mg/kg/injection, schedule: Q01DX001 (ip), vehicle: other
[23] = dose: 400.0 mg/kg/injection, schedule: Q01DX001 (ip), vehicle: other

Measured: T/C

CC(=O)NN(C)C(C)=O
inactive: dose: 12.5 mg/kg/injection, schedule: Q04DX003 (ip), vehicle: saline 110 % of control | dose: 25.0 mg/kg/injection, schedule: Q04DX003 (ip), vehicle: saline 120 % of control | dose: 50.0 mg/kg/injection, schedule: Q04DX003 (ip), vehicle: saline 112 % of control | [1] 101 % of control | dose: 130.0 mg/kg/injection, schedule: Q04DX003 (ip), vehicle: saline 105 % of control | [2] 96 % of control and 120 % of control | dose: 300.0 mg/kg/injection, schedule: Q04DX003 (ip), vehicle: saline 100 % of control | [3] 106 % of control

OCC1OC(Oc2ccccc2)C(O)C(O)C1O (centres undefined)
inactive: [1] 96 % of control | [2] 105 % of control | [3] 100 % of control

O=S(=O)(NOCCCCONS(=O)(=O)c1ccccc1)c1ccccc1
inactive: dose: 100.0 mg/kg/injection, schedule: Q01DX001 (ip), vehicle: saline with Tween-80 88 % of control | dose: 200.0 mg/kg/injection, schedule: Q01DX001 (ip), vehicle: saline with Tween-80 95 % of control | dose: 400.0 mg/kg/injection, schedule: Q01DX001 (ip), vehicle: saline with Tween-80 97 % of control

COc1ccc(NC(=O)Nc2cccc([N+](=O)[O-])c2OC)cc1
inactive: dose: 25.0 mg/kg/injection, schedule: Q04DX002 (ip), vehicle: saline with Tween-80 93 % of control | dose: 50.0 mg/kg/injection, schedule: Q04DX002 (ip), vehicle: saline with Tween-80 96 % of control | dose: 100.0 mg/kg/injection, schedule: Q04DX002 (ip), vehicle: saline with Tween-80 89 % of control

CCC(NC(=O)CN)C(=O)O (centres undefined)
inactive: dose: 100.0 mg/kg/injection, schedule: Q01DX009 (ip), vehicle: saline 100 % of control and 107 % of control | [4] 97 % of control and 101 % of control and 91 % of control | [1] 93 % of control | dose: 200.0 mg/kg/injection, schedule: Q01DX009 (ip), vehicle: saline 102 % of control and 92 % of control | [5] 97 % of control and 105 % of control | [2] 94 % of control | dose: 400.0 mg/kg/injection, schedule: Q01DX009 (ip), vehicle: saline 102 % of control and 111 % of control | [6] 108 % of control and 100 % of control and 118 % of control | [3] 98 % of control

O=C1NC(c2ccccc2)(c2ccccc2)C(O)N1CCO (centres undefined)
inactive: [7] 101 % of control | [8] 101 % of control | [9] 98 % of control

CN1CCN(C(=O)C2CCCCC2C(=O)O)CC1 (centres undefined)
inactive: [4] 107 % of control | [5] 107 % of control | [6] 96 % of control

COc1ccc(C2NC(=O)c3ccccc3N2)c(OC)c1OC (centres undefined)
inactive: [10] 105 % of control | [11] 97 % of control | [12] 100 % of control | [13] 101 % of control | [14] 106 % of control | dose: 400.0 mg/kg/injection, schedule: Q04DX003 (ip), vehicle: Klucel (hydroxypropylcellulose) (HPC) 102 % of control

CC(C)N1C(=O)c2cccc3c(Br)ccc(c23)C1=O
inactive: [11] 96 % of control | [13] 97 % of control

Cc1ccccc1SC(=O)Nc1ccc([N+](=O)[O-])cc1Cl
inactive: [10] 96 % of control | [12] 94 % of control | [14] 94 % of control

Oc1c(Cl)cc(Cl)cc1/C=N/N1CCN(/N=C/c2cc(Cl)cc(Cl)c2O)CC1
inactive: [15] 87 % of control | [16] 87 % of control

CCC(CC)OC(=O)c1cc([N+](=O)[O-])cc([N+](=O)[O-])c1
inactive: [7] 91 % of control | [8] 87 % of control | [9] 94 % of control

CCOC(=O)C1=C(C)NC(=O)NC1c1ccc(N=Cc2cc(Br)ccc2O)cc1 (centres undefined)
inactive: [7] 97 % of control | [8] 97 % of control | [9] 89 % of control

O=C1c2ccccc2-c2ccc([N+](=O)[O-])c(Br)c21
inactive: [17] 106 % of control | [18] 106 % of control | [19] 102 % of control

CC(/C=N/NC(=O)NO)=N\NC(=O)NO
inactive: [20] 98 % of control | [21] 98 % of control | dose: 100.0 mg/kg/injection, schedule: Q04DX003 (ip), vehicle: other 112 % of control | [22] 98 % of control | dose: 200.0 mg/kg/injection, schedule: Q01DX009 (ip), vehicle: saline with Tween-80 97 % of control | dose: 200.0 mg/kg/injection, schedule: Q04DX003 (ip), vehicle: other 102 % of control | [23] 104 % of control | dose: 400.0 mg/kg/injection, schedule: Q01DX009 (ip), vehicle: saline with Tween-80 104 % of control | dose: 400.0 mg/kg/injection, schedule: Q04DX003 (ip), vehicle: other 98 % of control

COc1ccc(C(=O)N/N=C/c2ccccc2)cc1
inactive: dose: 50.0 mg/kg/injection, schedule: Q01DX001 (ip), vehicle: saline 102 % of control | [15] 98 % of control | [16] 98 % of control | dose: 400.0 mg/kg/injection, schedule: Q01DX001 (ip), vehicle: saline 98 % of control

C=C(C)C(=O)Nc1c(C)cccc1C
inactive: [11] 105 % of control | [13] 94 % of control

CCCOc1cc(C)c2cc(Cc3cc(C)c4nc(OCCC)cc(C)c4c3)cc(C)c2n1
inactive: [20] 87 % of control | [22] 95 % of control | [23] 101 % of control

O=C1CC2CCCCC2O1 (centres undefined)
inactive: dose: 50.0 mg/kg/injection, schedule: Q01DX009 (ip), vehicle: saline with Tween-80 96 % of control | dose: 75.0 mg/kg/injection, schedule: Q01DX001 (ip), vehicle: other 103 % of control | [21] 88 % of control | dose: 150.0 mg/kg/injection, schedule: Q01DX001 (ip), vehicle: other 97 % of control and 115 % of control

COc1c2c(cc3c1C1(O)Cc4ccc5c(c4C[N+]1(C)CC3)OCO5)OCO2 (centres undefined)
inactive: [15] 95 % of control | [16] 91 % of control

O=[N+]([O-])c1ccc(O)c(N=Cc2ccccc2O)c1
inactive: [17] 102 % of control | [18] 96 % of control | [19] 96 % of control

COC1=C(N=[N+]=[N-])C(=O)C(OC)=C(N=[N+]=[N-])C1=O
inactive: dose: 2.0 mg/kg/injection, schedule: Q01DX009 (ip), vehicle: carboxymethylcellulose (CMC) 93 % of control | dose: 2.5 mg/kg/injection, schedule: Q01DX001 (ip), vehicle: carboxymethylcellulose (CMC) 95 % of control | dose: 4.0 mg/kg/injection, schedule: Q01DX009 (ip), vehicle: carboxymethylcellulose (CMC) 98 % of control | dose: 5.0 mg/kg/injection, schedule: Q01DX001 (ip), vehicle: carboxymethylcellulose (CMC) 91 % of control | dose: 5.0 mg/kg/injection, schedule: Q04DX003 (ip), vehicle: carboxymethylcellulose (CMC) 93 % of control | dose: 8.0 mg/kg/injection, schedule: Q01DX009 (ip), vehicle: carboxymethylcellulose (CMC) 104 % of control | dose: 10.0 mg/kg/injection, schedule: Q01DX001 (ip), vehicle: carboxymethylcellulose (CMC) 95 % of control and 100 % of control | dose: 10.0 mg/kg/injection, schedule: Q04DX003 (ip), vehicle: carboxymethylcellulose (CMC) 110 % of control | dose: 20.0 mg/kg/injection, schedule: Q01DX001 (ip), vehicle: carboxymethylcellulose (CMC) 98 % of control | dose: 20.0 mg/kg/injection, schedule: Q04DX003 (ip), vehicle: carboxymethylcellulose (CMC) 90 % of control | dose: 30.0 mg/kg/injection, schedule: Q04DX003 (ip), vehicle: saline with Tween-80 93 % of control | dose: 36.25 mg/kg/injection, schedule: Q01DX009 (ip), vehicle: saline 114 % of control | dose: 45.0 mg/kg/injection, schedule: Q04DX003 (ip), vehicle: saline with Tween-80 104 % of control | dose: 65.0 mg/kg/injection, schedule: Q04DX003 (ip), vehicle: saline with Tween-80 100 % of control | dose: 72.5 mg/kg/injection, schedule: Q01DX009 (ip), vehicle: saline 100 % of control | dose: 95.0 mg/kg/injection, schedule: Q04DX003 (ip), vehicle: saline 94 % of control | dose: 145.0 mg/kg/injection, schedule: Q01DX009 (ip), vehicle: saline 86 % of control | dose: 145.0 mg/kg/injection, schedule: Q04DX003 (ip), vehicle: saline 92 % of control
